From ChEMBL document CHEMBL5212743, “Selectivity Literature for EUbOPEN Chemogenomics Library wave 3” (2023)
Values belong to the molecule of their own block, whether it stands above or below them.

Key:
[1] = target: T1, Alpha-2C adrenergic receptor (Homo sapiens, UniProt P18825); assay: Selectivity interaction (Enzyme panel (GPCRS, ion channels, and transporters)) EUB0000194b ADRA2C
T1 sequence (P18825 whole entry): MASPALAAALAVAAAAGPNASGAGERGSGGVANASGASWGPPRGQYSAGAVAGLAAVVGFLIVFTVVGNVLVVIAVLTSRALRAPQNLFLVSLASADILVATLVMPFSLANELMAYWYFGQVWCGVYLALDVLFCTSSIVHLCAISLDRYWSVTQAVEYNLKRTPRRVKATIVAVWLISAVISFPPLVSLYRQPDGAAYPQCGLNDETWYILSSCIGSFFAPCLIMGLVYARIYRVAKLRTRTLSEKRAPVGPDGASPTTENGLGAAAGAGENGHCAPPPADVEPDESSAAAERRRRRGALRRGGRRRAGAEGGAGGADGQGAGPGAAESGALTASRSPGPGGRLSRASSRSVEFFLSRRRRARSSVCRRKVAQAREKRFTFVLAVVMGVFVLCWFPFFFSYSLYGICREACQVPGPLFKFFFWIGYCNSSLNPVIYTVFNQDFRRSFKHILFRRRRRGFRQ

[2] = target: Protein arginine N-methyltransferase 5 (Homo sapiens, UniProt O14744); assay: Selectivity interaction (HMT panel) EUB0000194b PRMT5
[3] = target: T2, Histone-lysine N-methyltransferase SETD7 (Homo sapiens, UniProt Q8WTS6); assay: Selectivity interaction (HMT panel) EUB0000194b SETD7
T2 sequence (Q8WTS6 whole entry): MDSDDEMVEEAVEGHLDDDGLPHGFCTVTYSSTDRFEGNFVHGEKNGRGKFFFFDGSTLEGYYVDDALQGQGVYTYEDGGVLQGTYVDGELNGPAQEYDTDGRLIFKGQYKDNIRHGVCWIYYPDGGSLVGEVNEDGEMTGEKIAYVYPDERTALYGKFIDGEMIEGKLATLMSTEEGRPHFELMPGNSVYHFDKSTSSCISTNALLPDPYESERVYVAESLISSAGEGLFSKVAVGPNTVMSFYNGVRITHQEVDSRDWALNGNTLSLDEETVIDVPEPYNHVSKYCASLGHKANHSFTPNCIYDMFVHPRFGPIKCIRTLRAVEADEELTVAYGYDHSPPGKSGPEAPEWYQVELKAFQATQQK

[4] = target: Histone-lysine N-methyltransferase 2A (Homo sapiens, UniProt Q03164); assay: Selectivity interaction (HMT panel) EUB0000194b MLL
[5] = target: Histone-arginine methyltransferase CARM1 (Homo sapiens, UniProt Q86X55); assay: Selectivity interaction (HMT panel) EUB0000194b CARM1
[6] = target: Histone-lysine N-methyltransferase EZH2 (Homo sapiens, UniProt Q15910); assay: Selectivity interaction (HMT panel) EUB0000194b EZH2
Histone-lysine N-methyltransferase EZH2, sequence (Q15910 whole entry): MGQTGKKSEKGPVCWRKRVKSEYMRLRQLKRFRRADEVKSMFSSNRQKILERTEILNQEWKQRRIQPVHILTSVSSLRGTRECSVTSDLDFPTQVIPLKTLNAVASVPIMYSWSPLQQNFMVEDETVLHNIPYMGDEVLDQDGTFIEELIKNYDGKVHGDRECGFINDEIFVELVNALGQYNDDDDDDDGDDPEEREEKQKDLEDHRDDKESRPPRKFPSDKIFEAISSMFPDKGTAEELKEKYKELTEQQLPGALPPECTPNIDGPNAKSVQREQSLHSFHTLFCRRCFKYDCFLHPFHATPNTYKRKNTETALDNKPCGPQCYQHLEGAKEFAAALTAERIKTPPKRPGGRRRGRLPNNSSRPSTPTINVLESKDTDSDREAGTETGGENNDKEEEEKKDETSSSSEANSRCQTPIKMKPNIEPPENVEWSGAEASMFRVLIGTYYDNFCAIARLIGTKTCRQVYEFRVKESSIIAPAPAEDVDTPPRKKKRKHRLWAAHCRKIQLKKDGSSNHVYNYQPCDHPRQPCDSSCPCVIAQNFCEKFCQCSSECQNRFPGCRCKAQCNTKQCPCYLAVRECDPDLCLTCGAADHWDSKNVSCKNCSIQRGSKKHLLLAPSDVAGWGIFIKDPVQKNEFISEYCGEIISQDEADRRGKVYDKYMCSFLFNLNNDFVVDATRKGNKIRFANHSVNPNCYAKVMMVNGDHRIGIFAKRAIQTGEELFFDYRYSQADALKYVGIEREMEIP

[7] = target: Protein arginine N-methyltransferase 1 (Homo sapiens, UniProt Q99873); assay: Selectivity interaction (HMT panel) EUB0000194b PRMT1
[8] = target: Protein arginine N-methyltransferase 3 (Homo sapiens, UniProt O60678); assay: Selectivity interaction (HMT panel) EUB0000194b PRMT3
[9] = target: Protein arginine N-methyltransferase 8 (Homo sapiens, UniProt Q9NR22); assay: Selectivity interaction (HMT panel) EUB0000194b PRMT8
[10] = target: T3, N-lysine methyltransferase KMT5A (Homo sapiens, UniProt Q9NQR1); assay: Selectivity interaction (HMT panel) EUB0000194b SETD8
T3 sequence (Q9NQR1 whole entry): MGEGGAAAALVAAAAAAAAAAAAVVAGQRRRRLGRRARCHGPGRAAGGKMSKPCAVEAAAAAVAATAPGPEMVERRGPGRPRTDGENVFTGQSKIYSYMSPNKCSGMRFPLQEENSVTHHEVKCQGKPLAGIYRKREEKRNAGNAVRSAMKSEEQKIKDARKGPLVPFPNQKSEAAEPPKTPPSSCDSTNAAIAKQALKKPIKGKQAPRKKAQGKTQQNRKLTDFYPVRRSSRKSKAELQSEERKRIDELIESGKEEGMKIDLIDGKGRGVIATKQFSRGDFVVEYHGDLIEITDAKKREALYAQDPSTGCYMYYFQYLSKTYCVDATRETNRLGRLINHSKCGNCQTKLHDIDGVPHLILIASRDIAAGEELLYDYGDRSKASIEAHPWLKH

[11] = target: Histone-lysine N-methyltransferase SETDB1 (Homo sapiens, UniProt Q15047); assay: Selectivity interaction (HMT panel) EUB0000194b SETDB1
[12] = target: Histone-lysine N-methyltransferase SUV39H2 (Homo sapiens, UniProt Q9H5I1); assay: Selectivity interaction (HMT panel) EUB0000194b SUV39H2
Histone-lysine N-methyltransferase SUV39H2, sequence (Q9H5I1 whole entry): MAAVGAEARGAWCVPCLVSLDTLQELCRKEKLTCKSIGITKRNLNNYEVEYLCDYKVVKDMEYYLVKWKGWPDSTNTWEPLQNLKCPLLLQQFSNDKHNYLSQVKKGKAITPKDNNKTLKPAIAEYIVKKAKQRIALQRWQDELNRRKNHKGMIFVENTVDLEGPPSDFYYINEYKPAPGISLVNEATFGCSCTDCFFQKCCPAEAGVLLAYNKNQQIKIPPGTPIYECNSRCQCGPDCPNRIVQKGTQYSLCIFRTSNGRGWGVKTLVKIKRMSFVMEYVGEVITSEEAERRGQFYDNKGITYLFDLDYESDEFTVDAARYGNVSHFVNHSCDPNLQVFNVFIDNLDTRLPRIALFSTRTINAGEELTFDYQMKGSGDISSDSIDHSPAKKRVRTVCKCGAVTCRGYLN

[13] = target: Histone-lysine N-methyltransferase KMT5B (Homo sapiens, UniProt Q4FZB7); assay: Selectivity interaction (HMT panel) EUB0000194b SUV420H1
Histone-lysine N-methyltransferase KMT5B, sequence (Q4FZB7 whole entry): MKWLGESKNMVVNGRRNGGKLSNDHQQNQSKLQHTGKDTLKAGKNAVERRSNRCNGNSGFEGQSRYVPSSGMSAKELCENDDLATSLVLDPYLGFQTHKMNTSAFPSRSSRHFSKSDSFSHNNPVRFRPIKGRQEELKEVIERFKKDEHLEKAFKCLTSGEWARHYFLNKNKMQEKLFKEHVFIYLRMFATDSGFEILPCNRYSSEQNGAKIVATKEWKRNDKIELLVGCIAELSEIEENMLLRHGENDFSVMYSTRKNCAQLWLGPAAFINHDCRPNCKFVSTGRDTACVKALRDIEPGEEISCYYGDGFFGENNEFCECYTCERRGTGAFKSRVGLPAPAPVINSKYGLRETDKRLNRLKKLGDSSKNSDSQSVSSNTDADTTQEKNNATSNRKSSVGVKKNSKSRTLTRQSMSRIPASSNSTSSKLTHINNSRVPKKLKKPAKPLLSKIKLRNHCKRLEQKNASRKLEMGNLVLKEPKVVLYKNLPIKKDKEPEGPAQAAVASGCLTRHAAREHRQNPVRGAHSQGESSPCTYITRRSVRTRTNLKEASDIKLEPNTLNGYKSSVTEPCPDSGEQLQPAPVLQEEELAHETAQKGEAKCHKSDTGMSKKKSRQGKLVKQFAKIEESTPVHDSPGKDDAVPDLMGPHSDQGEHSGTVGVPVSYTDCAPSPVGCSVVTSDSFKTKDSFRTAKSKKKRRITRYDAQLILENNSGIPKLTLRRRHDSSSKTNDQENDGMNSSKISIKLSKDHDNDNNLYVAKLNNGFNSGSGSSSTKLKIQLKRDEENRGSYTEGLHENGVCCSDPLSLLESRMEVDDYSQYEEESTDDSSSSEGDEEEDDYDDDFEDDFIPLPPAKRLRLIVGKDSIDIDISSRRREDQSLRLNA

[14] = target: Histone-lysine N-methyltransferase KMT5C (Homo sapiens, UniProt Q86Y97); assay: Selectivity interaction (HMT panel) EUB0000194b SUV420H2
[15] = target: T4, Serine/threonine-protein kinase 32C (Homo sapiens, UniProt Q86UX6); assay: Selectivity interaction (ScanMAX (DiscoverX)) EUB0000285b STK32C; details: at 1 µM
T4 sequence (Q86UX6 whole entry): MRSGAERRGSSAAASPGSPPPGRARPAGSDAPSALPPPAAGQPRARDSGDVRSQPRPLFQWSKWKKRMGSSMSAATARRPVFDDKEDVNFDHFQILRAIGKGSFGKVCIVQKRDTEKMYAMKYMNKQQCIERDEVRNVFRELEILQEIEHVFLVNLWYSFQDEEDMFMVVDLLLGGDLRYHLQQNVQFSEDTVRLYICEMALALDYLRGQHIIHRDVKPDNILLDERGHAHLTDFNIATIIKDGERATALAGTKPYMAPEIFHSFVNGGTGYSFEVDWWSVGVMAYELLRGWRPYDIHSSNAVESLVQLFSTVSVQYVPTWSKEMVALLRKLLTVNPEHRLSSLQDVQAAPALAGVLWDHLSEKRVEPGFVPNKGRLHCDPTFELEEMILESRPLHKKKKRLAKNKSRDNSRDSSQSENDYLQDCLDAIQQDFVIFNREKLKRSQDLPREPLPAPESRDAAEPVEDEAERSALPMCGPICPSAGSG

[16] = target: T4, Serine/threonine-protein kinase 32C; assay: Selectivity interaction (ScanMAX (DiscoverX, competition-binding assay)) EUB0000285b STK32C
[17] = target: Testis-specific serine/threonine-protein kinase 1 (Homo sapiens) (UniProt Q9BXA7); assay: Selectivity interaction (ScanMAX (DiscoverX)) EUB0000285b TSSK1B; details: at 1 µM
Testis-specific serine/threonine-protein kinase 1 (Homo sapiens), sequence (Q9BXA7 whole entry): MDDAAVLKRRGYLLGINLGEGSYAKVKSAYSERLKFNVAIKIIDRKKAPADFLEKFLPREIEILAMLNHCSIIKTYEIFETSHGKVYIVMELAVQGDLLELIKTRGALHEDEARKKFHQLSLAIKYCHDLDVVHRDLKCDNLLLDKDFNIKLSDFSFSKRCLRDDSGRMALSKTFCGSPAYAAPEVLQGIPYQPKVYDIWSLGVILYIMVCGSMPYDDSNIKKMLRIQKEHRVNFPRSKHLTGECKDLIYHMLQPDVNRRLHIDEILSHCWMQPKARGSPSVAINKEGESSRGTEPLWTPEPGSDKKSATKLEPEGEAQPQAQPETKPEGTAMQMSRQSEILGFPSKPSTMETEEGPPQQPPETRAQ

[18] = target: Testis-specific serine/threonine-protein kinase 1 (Homo sapiens, UniProt Q9BXA7); assay: Selectivity interaction (ScanMAX (DiscoverX, competition-binding assay)) EUB0000285b TSSK1B
Testis-specific serine/threonine-protein kinase 1, sequence (Q9BXA7 whole entry): as above

[19] = target: Serine/threonine-protein kinase 4 (Homo sapiens) (UniProt Q13043); assay: Selectivity interaction (ScanMAX (DiscoverX)) EUB0000285b STK4; details: at 1 µM
Serine/threonine-protein kinase 4 (Homo sapiens), sequence (Q13043 whole entry): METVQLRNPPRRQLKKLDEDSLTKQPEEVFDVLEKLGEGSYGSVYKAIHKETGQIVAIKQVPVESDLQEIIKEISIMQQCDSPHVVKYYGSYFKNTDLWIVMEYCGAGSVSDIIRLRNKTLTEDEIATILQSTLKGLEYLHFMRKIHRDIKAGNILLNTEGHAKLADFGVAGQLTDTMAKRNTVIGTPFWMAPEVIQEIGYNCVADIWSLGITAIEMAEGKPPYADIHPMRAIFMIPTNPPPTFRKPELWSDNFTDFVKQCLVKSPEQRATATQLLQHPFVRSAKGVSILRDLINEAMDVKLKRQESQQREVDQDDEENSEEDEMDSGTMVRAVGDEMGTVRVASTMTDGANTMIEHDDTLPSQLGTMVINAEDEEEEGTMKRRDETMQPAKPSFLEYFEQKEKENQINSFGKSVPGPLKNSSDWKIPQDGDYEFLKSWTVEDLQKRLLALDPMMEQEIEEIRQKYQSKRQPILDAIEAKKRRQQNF

[20] = target: Serine/threonine-protein kinase 4 (Homo sapiens, UniProt Q13043); assay: Selectivity interaction (ScanMAX (DiscoverX, competition-binding assay)) EUB0000285b STK4
Serine/threonine-protein kinase 4, sequence (Q13043 whole entry): as above

[21] = target: T5, Serine/threonine-protein kinase PAK 3 (Homo sapiens, UniProt O75914); assay: Selectivity interaction (ScanMAX (DiscoverX)) EUB0000285b PAK3; details: at 1 µM
Target sequence in this assay (O75914 whole entry, looked up): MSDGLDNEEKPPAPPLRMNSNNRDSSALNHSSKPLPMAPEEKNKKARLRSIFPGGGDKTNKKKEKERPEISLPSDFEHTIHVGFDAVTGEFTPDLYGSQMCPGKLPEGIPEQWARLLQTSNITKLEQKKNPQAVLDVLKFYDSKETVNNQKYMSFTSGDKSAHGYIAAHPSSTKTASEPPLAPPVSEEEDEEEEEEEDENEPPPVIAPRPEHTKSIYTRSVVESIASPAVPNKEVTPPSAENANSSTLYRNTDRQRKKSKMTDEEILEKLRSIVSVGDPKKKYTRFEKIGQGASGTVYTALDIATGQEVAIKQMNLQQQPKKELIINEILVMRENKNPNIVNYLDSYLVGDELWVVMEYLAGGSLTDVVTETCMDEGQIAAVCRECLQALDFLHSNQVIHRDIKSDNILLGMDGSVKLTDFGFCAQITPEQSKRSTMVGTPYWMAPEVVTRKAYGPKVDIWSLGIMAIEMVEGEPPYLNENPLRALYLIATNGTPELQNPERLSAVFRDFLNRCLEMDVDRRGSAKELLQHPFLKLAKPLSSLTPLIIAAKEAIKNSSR

[22] = target: T5, Serine/threonine-protein kinase PAK 3; assay: Selectivity interaction (ScanMAX (DiscoverX, competition-binding assay)) EUB0000285b PAK3
Target sequence in this assay (O75914 whole entry): as the sequence (O75914 whole entry, looked up) above

[23] = target: T6, Leukocyte tyrosine kinase receptor (Homo sapiens, UniProt P29376); assay: Selectivity interaction (ScanMAX (DiscoverX)) EUB0000285b LTK; details: at 1 µM
T6 sequence (P29376 whole entry): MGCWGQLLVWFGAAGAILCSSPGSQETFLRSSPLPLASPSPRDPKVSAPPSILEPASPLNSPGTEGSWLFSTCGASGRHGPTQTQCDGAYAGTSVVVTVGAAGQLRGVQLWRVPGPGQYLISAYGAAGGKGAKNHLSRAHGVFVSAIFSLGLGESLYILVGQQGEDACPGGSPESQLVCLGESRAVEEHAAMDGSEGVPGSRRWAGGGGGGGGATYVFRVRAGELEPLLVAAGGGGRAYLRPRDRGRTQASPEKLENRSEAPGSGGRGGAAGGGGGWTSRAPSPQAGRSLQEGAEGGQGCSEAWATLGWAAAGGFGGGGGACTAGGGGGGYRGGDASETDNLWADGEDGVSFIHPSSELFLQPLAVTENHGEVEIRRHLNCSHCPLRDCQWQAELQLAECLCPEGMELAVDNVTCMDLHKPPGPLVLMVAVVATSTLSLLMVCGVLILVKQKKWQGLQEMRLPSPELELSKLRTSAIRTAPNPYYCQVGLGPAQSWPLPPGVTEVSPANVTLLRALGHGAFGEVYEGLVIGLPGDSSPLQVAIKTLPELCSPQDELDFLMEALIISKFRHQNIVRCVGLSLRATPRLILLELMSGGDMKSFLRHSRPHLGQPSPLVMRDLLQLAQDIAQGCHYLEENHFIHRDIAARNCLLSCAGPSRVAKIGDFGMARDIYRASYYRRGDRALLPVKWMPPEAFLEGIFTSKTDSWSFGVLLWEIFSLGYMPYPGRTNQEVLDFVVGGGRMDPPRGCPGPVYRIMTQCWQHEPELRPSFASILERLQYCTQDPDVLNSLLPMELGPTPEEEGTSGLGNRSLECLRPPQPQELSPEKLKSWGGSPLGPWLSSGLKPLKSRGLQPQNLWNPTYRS

[24] = target: T6, Leukocyte tyrosine kinase receptor; assay: Selectivity interaction (ScanMAX (DiscoverX, competition-binding assay)) EUB0000285b LTK
[25] = target: T7, Serine/threonine-protein kinase LATS1 (Homo sapiens) (UniProt O95835); assay: Selectivity interaction (ScanMAX (DiscoverX)) EUB0000285b LATS1; details: at 1 µM
T7 sequence (whole entry): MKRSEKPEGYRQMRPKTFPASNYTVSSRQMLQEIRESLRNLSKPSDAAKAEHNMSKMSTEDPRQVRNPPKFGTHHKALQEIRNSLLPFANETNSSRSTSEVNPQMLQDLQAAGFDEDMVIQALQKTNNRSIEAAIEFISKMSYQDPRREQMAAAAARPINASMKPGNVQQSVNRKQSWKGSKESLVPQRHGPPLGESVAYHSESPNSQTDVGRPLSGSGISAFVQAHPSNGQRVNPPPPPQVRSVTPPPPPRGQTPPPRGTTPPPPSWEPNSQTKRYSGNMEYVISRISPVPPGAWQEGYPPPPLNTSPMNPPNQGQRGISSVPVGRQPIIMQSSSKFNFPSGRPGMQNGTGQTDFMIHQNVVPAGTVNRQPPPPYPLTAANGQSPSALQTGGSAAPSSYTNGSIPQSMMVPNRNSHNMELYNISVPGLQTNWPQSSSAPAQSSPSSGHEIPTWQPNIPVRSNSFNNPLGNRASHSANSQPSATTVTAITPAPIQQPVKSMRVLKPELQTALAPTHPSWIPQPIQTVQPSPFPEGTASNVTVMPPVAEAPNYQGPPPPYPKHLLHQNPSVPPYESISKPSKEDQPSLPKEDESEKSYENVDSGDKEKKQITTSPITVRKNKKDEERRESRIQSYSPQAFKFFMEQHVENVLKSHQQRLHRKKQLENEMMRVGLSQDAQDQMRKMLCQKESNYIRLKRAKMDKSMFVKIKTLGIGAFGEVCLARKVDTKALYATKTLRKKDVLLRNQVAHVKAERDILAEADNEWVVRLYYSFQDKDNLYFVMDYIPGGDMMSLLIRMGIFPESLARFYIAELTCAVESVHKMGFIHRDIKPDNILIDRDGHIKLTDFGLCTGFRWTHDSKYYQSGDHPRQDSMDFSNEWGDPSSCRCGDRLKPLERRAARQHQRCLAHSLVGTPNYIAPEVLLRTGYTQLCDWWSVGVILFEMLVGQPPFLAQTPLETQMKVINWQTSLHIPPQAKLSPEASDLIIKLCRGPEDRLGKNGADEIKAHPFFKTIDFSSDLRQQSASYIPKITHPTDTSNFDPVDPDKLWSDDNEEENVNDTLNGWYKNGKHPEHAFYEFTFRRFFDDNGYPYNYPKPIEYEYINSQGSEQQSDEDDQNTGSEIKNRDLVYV

[26] = target: Serine/threonine-protein kinase LATS1 (Homo sapiens, UniProt O95835); assay: Selectivity interaction (ScanMAX (DiscoverX, competition-binding assay)) EUB0000285b LATS1

Ki [1]: > 10 µM | IC50 [2]: > 10 µM | IC50 [3]: > 10 µM | IC50 [4]: > 10 µM | IC50 [5]: > 10 µM | IC50 [6]: > 10 µM | IC50 [7]: > 10 µM | IC50 [8]: > 10 µM | IC50 [9]: > 10 µM | IC50 [10]: > 10 µM | IC50 [11]: > 10 µM | IC50 [12]: > 10 µM | IC50 [13]: > 10 µM | IC50 [14]: > 10 µM
Structure (SMILES): COc1cc2c(NC3CCN(C(C)C)CC3)nc(N3CCC(F)(F)CC3)nc2cc1OCCCN1CCCC1

% of control [15]: 0% | Kd [16]: > 10 µM | % of control [17]: 0% | Kd [18]: > 10 µM | % of control [19]: 0% | Kd [20]: > 10 µM | % of control [21]: 0% | Kd [22]: > 10 µM | % of control [23]: 0% | Kd [24]: > 10 µM | % of control [25]: 8.6% | Kd [26]: > 10 µM
Structure (SMILES): O=C(NCc1ccccc1)c1ccc(S(=O)(=O)NCc2ccccc2)cc1
